In ChEMBL document CHEMBL1124752, “Cyclobut-A and cyclobut-G: broad-spectrum antiviral agents with potential utility for the therapy of AIDS” (J Med Chem, 1990):
Converted amounts (≈) assume the structure as drawn.

Key:
[1] = system: Human immunodeficiency virus 1; assay: Tested for the determination of percentage protection at 10 uM concentrations against HIV-1 in ATH8 Cells; format: functional
[2] = system: Human immunodeficiency virus 1; assay: Tested for the determination of percentage toxicity at 100 uM concentrations against HIV-1 in ATH8 Cells; format: functional
[3] = system: Human immunodeficiency virus 1; assay: Tested for the determination of percentage protection at 200 uM concentrations against HIV-1 in ATH8 Cells; format: functional
[4] = system: Human immunodeficiency virus 1; assay: Tested for the determination of percentage protection at 2 uM concentrations against HIV-1 in ATH8 Cells; format: functional
[5] = system: Human immunodeficiency virus 1; assay: Tested for the determination of percentage toxicity at 200 uM concentrations against HIV-1 in ATH8 Cells; format: functional
[6] = system: Human immunodeficiency virus 1; assay: Tested for the determination of percentage toxicity at 10 uM concentrations against HIV-1 in ATH8 Cells; format: functional
[7] = system: Human immunodeficiency virus 1; assay: Tested for the determination of percentage protection at 100 uM concentrations against HIV-1 in ATH8 Cells; format: functional
Murid betaherpesvirus 1 [8] = assay: Tested for the effective dose required to inhibit systemic MCMV in infected mice; format: functional
Murid betaherpesvirus 1 [9] = assay: Tested for mean day to death of nonsurvivors against systemic MCMV infection in mice at 1.9 mg/kg per day; format: functional
Murid betaherpesvirus 1 [10] = assay: In vitro antiviral activity tested against MCMV Smith strain by plaque reduction assay in mouse embryo fibroblasts.; format: functional; conditions: read-out: ID50 (the source's name)
Human betaherpesvirus 5 [11] = assay: In vitro antiviral activity tested against HCMV, EC strain by plaque reduction assay in human foreskin fibroblasts.; format: functional
Human betaherpesvirus 5 [12] = assay: In vitro antiviral activity tested against HCMV, CH strain by plaque reduction assay in human foreskin fibroblasts.; format: functional
Human betaherpesvirus 5 [13] = assay: In vitro antiviral activity tested against HCMV, LA strain by plaque reduction assay in human foreskin fibroblasts.; format: functional
Human betaherpesvirus 5 [14] = assay: In vitro antiviral activity tested against HCMV, AD169 strain by plaque reduction assay in human foreskin fibroblasts.; format: functional
Murid betaherpesvirus 1 [15] = assay: Number of survivors per number of systemic MCMV infected mice treated with 11.2 mg/kg per day; 15/15; format: functional
Murid betaherpesvirus 1 [16] = assay: In vitro antiviral activity tested against MCMV Smith strain by plaque reduction assay in mouse embryo fibroblasts.; conditions: read-out: ED50 (the source's name)
Murid betaherpesvirus 1 [17] = assay: Number of survivors per number of systemic MCMV infected mice treated with 3.8 mg/kg per day; 10/15; format: functional
Human betaherpesvirus 5 [18] = assay: In vitro antiviral activity tested against HCMV, Davis strain by plaque reduction assay in human foreskin fibroblasts.; format: functional
Murid betaherpesvirus 1 [19] = assay: Number of survivors per number of systemic MCMV infected mice treated with 33.4 mg/kg per day; 15/15; format: functional
[20] = read-out: ED50 (the source's name)
[21] = read-out: ID50 (the source's name)

Nc1ncnc2c1ncn2[C@H]1CC[C@@H](CO)O1
Protection [1]: 99%
Cytotoxicity [2]: 8%
Protection [3]: 99%
Protection [4]: 69%
Cytotoxicity [5]: 0%
Cytotoxicity [6]: 0%
Protection [7]: 100%

Nc1nc2c(ncn2COC(CO)CO)c(=O)[nH]1 [GANCICLOVIR]
ED50 (Murid betaherpesvirus 1 [8]): < 1.9 mg/kg/day
MDD (Murid betaherpesvirus 1 [9]): 7.6
IC50 (Murid betaherpesvirus 1 [10]): > 100 µg/mL
EC50 (Human betaherpesvirus 5 [11]; [20]): 2.8 µg/mL (≈ 11 µM)
IC50 (Human betaherpesvirus 5 [11]; [21]): > 100 µg/mL
EC50 (Human betaherpesvirus 5 [12]; [20]): 3.1 µg/mL (≈ 12.1 µM)
IC50 (Human betaherpesvirus 5 [12]; [21]): > 100 µg/mL
EC50 (Human betaherpesvirus 5 [13]; [20]): 2.4 µg/mL (≈ 9.4 µM)
IC50 (Human betaherpesvirus 5 [13]; [21]): > 100 µg/mL
EC50 (Human betaherpesvirus 5 [14]; [20]): 2.7 µg/mL (≈ 10.6 µM)
IC50 (Human betaherpesvirus 5 [14]; [21]): > 100 µg/mL
Survivors / treated (Murid betaherpesvirus 1 [15]): 15
EC50 (Murid betaherpesvirus 1 [16]): 1 µg/mL (≈ 3.92 µM)
Survivors / treated (Murid betaherpesvirus 1 [17]): 10
EC50 (Human betaherpesvirus 5 [18]; [20]): 3.6 µg/mL (≈ 14.1 µM)
IC50 (Human betaherpesvirus 5 [18]; [21]): > 100 µg/mL
Survivors / treated (Murid betaherpesvirus 1 [19]): 15
